The target of test [1] is SARS-CoV-2 main protease (Mpro) (Severe acute respiratory syndrome coronavirus 2, UniProt P0DTD1). Nature of the test: biochemical. The settings on record: for IC50: read-out: Enzyme IC50; for inhibition at 20 µM: read-out: Enzyme inhibition @ 20 uM.
Test [2] concerns SARS-CoV-2 (strain USA-WA1/2020). In words: microbe, parasite or virus in culture. To be noted: read-out: CoV-2 HeLa EC50. It is filed as cell-based.
[3] abbreviates: Severe acute respiratory syndrome coronavirus 2, HeLa, Table 3.
Where [4] appears, read: Table 3, select example compounds against mpro.

Read-outs that look alike come from different tables or passages of the source. Bounds are passed on as bounds.

Data on 36 compounds can be found in patent US20250084091A1, “INHIBITORS OF SARS-COV-2” (The Texas A&M University System, priority 2021, published 2025).

As for `O=C(c1cnccc1Cl)N1CCN(C2c3ccccc3CCc3ccccc32)CC1` [ZS-331, (4-chloro-3-pyridyl)-[4-(2-tricyclo[9.4.0.03,8]pentadeca-1(11),3(8),4,6,12,14-hexaenyl)piperazin-1-yl]methanone], the IC50 in test [1] (Table 2) was 0.37 µM. The same measure, in the same setting: the figure for `Cc1cncc(C(=O)N2CCC(=C(c3ccccc3)c3ccncc3)CC2)c1` [MKP-1398, (5-methylpyridin-3-yl)(4-(phenyl(pyridin-4-yl)methylene)piperidin-1-yl)methanone] is 0.58 µM. For `O=C(c1cncc2cc[nH]c12)N1CCC(=C(c2cccc(O)c2)c2cccc(O)c2)CC1` [MKP-1410, (4-(bis(3-hydroxyphenyl)methylene)piperidin-1-yl)(1H-pyrrolo[3,2-c]pyridin-7-yl)methanone], in test [1] (Table 2), the half-maximal inhibitory concentration (IC50) was 0.041 µM. For `Cc1cncc(C(=O)N2CCC(=C(c3ccccc3)C3CCCCC3)CC2)c1` [MKP-1421, (4-(cyclohexyl(phenyl)methylene)piperidin-1-yl)(5-methylpyridin-3-yl)methanone], in test [1] (Table 2), the IC50 stood at 0.92 µM. In the case of `Cc1cncc(C(=O)N2CCC(=C(c3cccc(F)c3)c3cccc(F)c3)CC2)c1` [MKP-1349, (4-(bis(3-fluorophenyl)methylene)piperidin-1-yl)(5-methylpyridin-3-yl)methanone], in test [1] (Table 2), the 50% inhibitory concentration (IC50) came out at 0.042 µM.

Turning to `Cc1cncc(C(=O)N2CCN(C(c3ccccc3)c3ccccn3)CC2)c1` (centres unmarked) [MKP-1416, (5-methylpyridin-3-yl)(4-(phenyl(pyridin-2-yl)methyl)piperazin-1-yl)methanone], in test [1] (Table 2), the IC50 is 0.176 µM. Same read-out and setting: in the case of `CC(C)(C)OC(=O)NCc1cncc(C(=O)N2CCN(C(c3ccccc3)c3ccccc3)CC2)c1` [PKJ-703, tert-butyl ((5-(4-benzhydrylpiperazine-1-carbonyl)pyridin-3-yl)methyl)carbamate] it was 0.93 µM; in that of `NCc1cncc(C(=O)N2CCN(C(c3ccccc3)c3ccccc3)CC2)c1` [PKJ-704, (5-(aminomethyl)pyridin-3-yl)(4-benzhydrylpiperazin-1-yl)methanone], 1.6 µM; in that of `O=C(c1cncc(Br)c1)N1CCN(C(c2ccccc2)c2cccnc2)CC1` (centres unmarked) [MKP-1200, 1-(5-bromopyridine-3-carbonyl)-4-[phenyl(pyridin-3-yl)methyl]piperazine], 0.32 µM. Regarding `O=C(c1cncc2cc[nH]c12)N1CCN(C(c2cccc(F)c2)c2cccc(F)c2)CC1` [MKP-1371, (4-(bis(3-fluorophenyl)methyl)piperazin-1-yl)(1H-pyrrolo[3,2-c]pyridin-7-yl)methanone], the concentration for a half-maximal effect (EC50) in test [2] (setting [3]) was 0.047 µM. For the same compound, the IC50 in test [1] (Table 2) stood at 0.025 µM; in test [1] (setting [4]), 0.013 µM. As for `Cc1cncc(C(=O)N2CCC(=C(c3ccccc3)c3cccc(F)c3)CC2)c1` [MKP-1360, (4-((3-fluorophenyl)(phenyl)methylene)piperidin-1-yl)(5-methylpyridin-3-yl)methanone], the IC50 in test [1] (Table 2) stood at 0.035 µM. As to `O=C1Nc2ccc(F)cc2C1CC(=O)N1CCN(C(c2ccccc2)c2ccccc2)CC1` (centres unmarked) [PKJ-663, 3-(2-(4-benzhydrylpiperazin-1-yl)-2-oxoethyl)-5-fluoroindolin-2-one], the IC50 in test [1] (Table 2) is greater than 80 µM. As for `CS(=O)(=O)c1ccccc1C(c1cccc(F)c1)N1CCN(C(=O)c2cncc3cc[nH]c23)CC1` (centres unmarked) [NZ-816, [4-[(3-fluorophenyl)-(2-methylsulfonylphenyl)methyl]piperazin-1-yl]-(1H-pyrrolo[3,2-c]pyridin-7-yl)methanone], the EC50 in test [2] (setting [3]) came out at 0.04 µM. The half-maximal inhibitory concentration (IC50) in test [1] (Table 2) stood at 0.03 µM; in test [1] (setting [4]) it was 0.017 µM. For `Cc1cncc(C(=O)N2CCC(=C(c3ccc(F)cc3)c3cccc(F)c3)CC2)c1` [MKP-1359, (4-((3-fluorophenyl)(4-fluorophenyl)methylene)piperidin-1-yl)(5-methylpyridin-3-yl)methanone], in test [1] (Table 2), the IC50 came out at 0.044 µM. In the case of `CS(=O)(=O)c1ccccc1C(c1ccccc1)N1CCN(C(=O)c2cncc3cc[nH]c23)CC1` (centres unmarked) [NZ-814, [4-[(2-methylsulfonylphenyl)-phenyl-methyl]piperazin-1-yl]-(1H-pyrrolo[3,2-c]pyridin-7-yl)methanone], the IC50 in test [1] (Table 2) amounted to 0.053 µM. With `Cc1cncc(C(=O)N2CCC(=C(c3cccnc3)c3cccc(O)c3)CC2)c1` [MKP-1392, (4-((3-hydroxyphenyl)(pyridin-3-yl)methylene)piperidin-1-yl)(5-methylpyridin-3-yl)methanone], the IC50 in test [1] (Table 2) stood at 0.093 µM. For `O=C(c1cncc2cn[nH]c12)N1CCC(=C2c3ccccc3CS(=O)(=O)c3ccccc32)CC1` [NZ-821, [4-(5,5-dioxo-6H-benzo[c][1]benzothiepin-11-ylidene)-1-piperidyl]-(1H-pyrazolo[4,3-c]pyridin-7-yl)methanone], in test [2] (setting [3]), the EC50 turned out to be 0.023 µM. For the same compound, the IC50 in test [1] (Table 2) and in test [1] (setting [4]) was 0.044 µM throughout. For `Cc1cncc(C(=O)N2CCC(=C(c3ccccn3)c3ccccn3)CC2)c1` [MKP-1422, (4-(di(pyridin-2-yl)methylene)piperidin-1-yl)(5-methylpyridin-3-yl)methanone], the IC50 in test [1] (Table 2) was found to be 0.11 µM. Consider `O=C(c1cnccn1)N1CCN(C(c2ccccc2)c2cccnc2)CC1` (centres unmarked) [MKP-1188, 2-{4-[phenyl(pyridin-3-yl)methyl]piperazine-1-carbonyl}pyrazine], for which the inhibition at 20 µM in test [1] stood at 50%. In the case of `Cc1cncc(C(=O)N2CCC(N(c3cccc(F)c3)c3cccc(F)c3)CC2)c1` [MKP-1404, (4-(bis(3-fluorophenyl)amino)piperidin-1-yl)(5-methylpyridin-3-yl)methanone], the IC50 in test [1] (Table 2) came to 2.66 µM. As for `O=C(c1cncc2cc[nH]c12)N1CCC(N(c2ccccc2)c2ccccc2)CC1` [AA-667, [4-(N-phenylanilino)-1-piperidyl]-(1H-pyrrolo[3,2-c]pyridin-7-yl)methanone], the IC50 in test [1] (Table 2) amounted to 3.32 µM.

Regarding `O=C(C1CNCCO1)N1CCN(C(c2ccccc2)c2ccccc2)CC1` (centres unmarked) [AA-582, (4-benzhydrylpiperazin-1-yl)(morpholin-2-yl)methanone], the inhibition at 20 µM in test [1] amounted to 60%. Take `Cc1cncc(C(=O)C2CCN(C(c3ccccc3)c3ccccc3)CC2=O)c1` (centres unmarked) [PKJ-672, 1-benzhydryl-4-(5-methylnicotinoyl)piperidin-3-one]: the 50% inhibitory concentration (IC50) in test [1] (Table 2) is 0.76 µM. As for `Cc1cncc(CN2CCN(C(c3ccccc3)c3ccccc3)CC2=O)c1` [AA-646, 4-benzhydryl-1-((5-methylpyridin-3-yl)methyl)piperazin-2-one], in test [2] (Severe acute respiratory syndrome coronavirus 2, Table 2, SARS-CoV-2 infected HeLa-ACE2 cells), the EC50 worked out at 5.2 µM. Also, the IC50 in test [1] (Table 2) worked out at 6.1 µM. `CC(=O)Nc1ncc(C(=O)N2CCN(C3c4ccccc4CS(=O)(=O)c4ccccc43)CC2)cc1C` (centres unmarked) [NZ-820, N-[5-[4-(5,5-dioxo-6,11-dihydrobenzo[c][1]benzothiepin-11-yl)piperazine-1-carbonyl]-3-methyl-2-pyridyl]acetamide]: in test [1] (Table 2), the IC50 is greater than 80 µM. As to `Cc1cncc(C(=O)N2CCN(C(c3cccc(F)c3)c3ccccc3S(C)(=O)=O)CC2)c1` (centres unmarked) [NZ-817, [4-[(3-fluorophenyl)-(2-methylsulfonylphenyl)methyl]piperazin-1-yl]-(5-methyl-3-pyridyl)methanone], the IC50 in test [1] (Table 2) stood at 0.033 µM.

Turning to `Cc1cc(C(=O)N2CCN(C3c4ccccc4CS(=O)(=O)c4ccccc43)CC2)cnc1N` (centres unmarked) [NZ-819, (6-amino-5-methyl-3-pyridyl)-[4-(5,5-dioxo-6,11-dihydrobenzo[c][1]benzothiepin-11-yl)piperazin-1-yl]methanone], the IC50 in test [1] (Table 2) was 20 µM. Still for that read-out and setting: the figure for `O=C1CN(C(=O)N2CCN(C3c4ccccc4CS(=O)(=O)c4ccccc43)CC2)c2ccccc2N1` (centres unmarked) [NZ-812, 4-[4-(5,5-dioxo-6,11-dihydrobenzo[c][1]benzothiepin-11-yl)piperazine-1-carbonyl]-1,3-dihydroquinoxalin-2-one] is 0.55 µM. As for `O=C(c1cncc2cn[nH]c12)N1CCN(C2c3ccccc3CS(=O)(=O)c3ccccc32)CC1` (centres unmarked) [NZ-822, [4-(5,5-dioxo-6,11-dihydrobenzo[c][1]benzothiepin-11-yl)piperazin-1-yl]-(1H-pyrazolo[4,3-c]pyridin-7-yl)methanone], the EC50 in test [2] (setting [3]) worked out at 0.089 µM. Moreover, the IC50 in test [1] (setting [4]) amounted to 0.054 µM. `COc1cccc(C(c2ccccc2)N2CCN(C(=O)c3cccnc3)CC2)c1` (centres unmarked) [MKP-1203, 1-[(3-methoxyphenyl)(phenyl)methyl]-4-(pyridine-3-carbonyl)piperazine]: the IC50 in test [1] (Table 2) was found to be 2.8 µM.

Take `O=C(c1cncnc1)N1CCN(C(c2ccccc2)c2cccnc2)CC1` (centres unmarked) [MKP-1189, 5-{4-[phenyl(pyridin-3-yl)methyl]piperazine-1-carbonyl}pyrimidine]: the inhibition at 20 µM in test [1] was 60%. For the compound `COc1ccccc1C(=C1CCN(C(=O)c2cncc(C)c2)CC1)c1ccccn1` [MKP-1440, (4-((2-methoxyphenyl)(pyridin-2-yl)methylene)piperidin-1-yl)(5-methylpyridin-3-yl)methanone], the IC50 in test [1] (Table 2) was found to be 0.17 µM. For `Cc1cncc(C(=O)N2CCC(=C(c3cccc(O)c3)c3cccc(O)c3)CC2)c1` [MKP-1381, (4-(bis(3-hydroxyphenyl)methylene)piperidin-1-yl)(5-methylpyridin-3-yl)methanone], the half-maximal inhibitory concentration (IC50) in test [1] (Table 2) stood at 0.094 µM. Take `COc1cccc(C(c2ccccc2)N2CCN(C(=O)c3cncc(Cl)c3)CC2)c1` (centres unmarked) [MKP-1205, 1-(5-chloropyridine-3-carbonyl)-4-[(3-methoxyphenyl)(phenyl)methyl] piperazine]: in test [1] (Table 2), the IC50 was 0.55 µM. On the same count and under the same terms, the figure for `Cc1cncc(C(=O)N2CCC(=C(c3ccccc3)c3ccccn3)CC2)c1` [MKP-1400, (5-methylpyridin-3-yl)(4-(phenyl(pyridin-2-yl)methylene)piperidin-1-yl)methanone] is 0.074 µM; for `Cc1cncc(C(=O)N2CCN(C(c3ccccc3)c3ccncc3)CC2)c1` (centres unmarked) [MKP-1442, (5-methylpyridin-3-yl)(4-(phenyl(pyridin-4-yl)methyl)piperazin-1-yl)methanone] it is 1.6 µM.
